This is an account of results in patent publication US8859574B2 (IRM LLC, priority 2008, dated 2014).

Each structure is given as a SMILES string.

One may read the IC50 as the concentration needed to halve the response being measured. A low value points to higher potency.

The target of this test is T1, IGF-1R Ba/F3 (Homo sapiens, UniProt P08069).
T1 construct: fused on or other part: TEL- (or BCR-) IGF-1R in Ba/F3: the kinase part holds the site
T1 sequence (P08069 999-1274 limits assumed): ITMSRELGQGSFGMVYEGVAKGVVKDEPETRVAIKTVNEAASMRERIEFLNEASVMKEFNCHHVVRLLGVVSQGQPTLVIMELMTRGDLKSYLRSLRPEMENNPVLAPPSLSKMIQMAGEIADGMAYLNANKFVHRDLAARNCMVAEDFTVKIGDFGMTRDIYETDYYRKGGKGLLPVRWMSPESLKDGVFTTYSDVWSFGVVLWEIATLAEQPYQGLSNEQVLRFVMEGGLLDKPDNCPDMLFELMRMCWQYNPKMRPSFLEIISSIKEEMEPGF
Nature of the test: Ba/F3 Cell Viability Inhibition Assay (IGF-1R Ba/F3). It counts as cell-based, murine. The following applies: Tel-TK transformed Ba/F3 cells, 48 hours, Britelite luminescence. An outline of the steps: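 A 48 h compound treatment at 37 °C (3750 cells/well) was followed by Britelite luminescence to measure viability. Cells were Ba/F3 pro-B cells, IL-3-independent via TEL-fused IGF-1R kinase transduction. A logistic fit gave IC50 as 50% viability relative to DMSO control.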
`CCNC1(C(=O)N2CCC(c3cc(F)c(Nc4ncc(Cl)c(Nc5cc(C)[nH]n5)n4)cc3C)CC2)CCC1` [Compound 176, (4-(4-(5-chloro-4-(5-methyl-1H-pyrazol-3-ylamino)pyrimidin-2-ylamino)-5-fluoro-2-methylphenyl)piperidin-1-yl)(1-(ethylamino)cyclobutyl)methanone]: the IC50 turned out to be 84 nM.

Turning to `Cc1cc(C2CCN(CCO)CC2)c(C)cc1Nc1ncc(Cl)c(Nc2cc(C3CC3)[nH]n2)n1` [Compound 204, 2-(4-(4-(5-chloro-4-(5-cyclopropyl-1H-pyrazol-3-ylamino)pyrimidin-2-ylamino)-2,5-dimethylphenyl)piperidin-1-yl)ethanol], the IC50 came to 16 nM.

In turn, `CNC(C)(C)C(=O)N1CCC(c2cc(F)c(Nc3ncc(Cl)c(Nc4cc(C)[nH]n4)n3)cc2C)CC1` [Compound 87, 1-(4-(4-(5-chloro-4-(5-methyl-1H-pyrazol-3-ylamino)pyrimidin-2-ylamino)-5-fluoro-2-methylphenyl)piperidin-1-yl)-2-methyl-2-(methylamino)propan-1-one] returned a 50% inhibitory concentration (IC50) of 17 nM.

Consider `Cc1cc(Nc2nc(Nc3cc(C)c(C4CCN(Cc5noc(C(C)C)n5)CC4)cc3C)ncc2Cl)n[nH]1` [Compound 305, 5-chloro-N2-(4-(1-((5-isopropyl-1,2,4-oxadiazol-3-yl)methyl)piperidin-4-yl)-2,5-dimethylphenyl)-N4-(5-methyl-1H-pyrazol-3-yl)pyrimidine-2,4-diamine], for which the midpoint of inhibition, the IC50, lay at 25 nM.

The molecule `Cc1cc(Nc2nc(Nc3cc(C)c(C4CCN(C(C)C(N)=O)CC4)cc3C)ncc2Cl)n[nH]1` (stereo not shown) [Compound 51, 2-(4-(4-(5-chloro-4-(5-methyl-1H-pyrazol-3-ylamino)pyrimidin-2-ylamino)-2,5-dimethylphenyl)piperidin-1-yl)propanamide] had an IC50 of 9 nM.

`Cc1cc(Nc2nc(Nc3cc(C)c(C4CCN(C5CS(=O)(=O)C5)CC4)cc3F)ncc2Cl)n[nH]1` [Compound 148, 5-chloro-N^2-(2-fluoro-5-methyl-4-(1-(1,1-dioxido-3-thietanyl)piperidin-4-yl)phenyl)-N^4-(5-methyl-1H-pyrazol-3-yl)pyrimidine-2,4-diamine] returned an IC50 of 18 nM.

For the molecule `Cc1cc(Nc2nc(Nc3cc(C)c([C@@H]4COC(=O)N4)cc3C)ncc2Cl)n[nH]1` [Compound 231, (R)-4-(4-(5-chloro-4-(5-methyl-1H-pyrazol-3-ylamino)pyrimidin-2-ylamino)-2,5-dimethylphenyl)oxazolidin-2-one], half-maximal inhibition (IC50) required 50 nM.

For the molecule `Cc1cc(Nc2nc(Nc3cc(C)c(C4CCN(C(=O)CN(C)C)CC4)cc3F)ncc2Cl)n[nH]1` [Compound 73, 1-(4-(4-(5-chloro-4-(5-methyl-1H-pyrazol-3-ylamino)pyrimidin-2-ylamino)-5-fluoro-2-methylphenyl)piperidin-1-yl)-2-(dimethylamino)ethanone], the IC50 stood at 19 nM.

`Cc1cc(Nc2nc(Nc3cc(C)c(C4CCN(CC(N)=O)C(C)C4)cc3F)ncc2Cl)n[nH]1` (stereo not shown) [Compound 274, 2-(4-(4-(5-chloro-4-(5-methyl-1H-pyrazol-3-ylamino)pyrimidin-2-ylamino)-5-fluoro-2-methylphenyl)-2-methylpiperidin-1-yl)acetamide] displayed an IC50 of 6 nM.

With `CCN(CC)CC(=O)N1CCC(c2cc(F)c(Nc3ncc(Cl)c(Nc4cc(C)[nH]n4)n3)cc2C)CC1` [Compound 81, 1-(4-(4-(5-chloro-4-(5-methyl-1H-pyrazol-3-ylamino)pyrimidin-2-ylamino)-5-fluoro-2-methylphenyl)piperidin-1-yl)-2-(diethylamino)ethanone], half-maximal inhibition (IC50) was put at 30 nM.

The molecule `Cc1cc(Nc2nc(Nc3cc(C(F)(F)F)c(C4CCN(C)CC4)cc3F)ncc2Cl)n[nH]1` [Compound 216, 5-chloro-N2-(2-fluoro-4-(1-methylpiperidin-4-yl)-5-(trifluoromethyl)phenyl)-N4-(5-methyl-1H-pyrazol-3-yl)pyrimidine-2,4-diamine] had a concentration for half-maximal inhibition (IC50) of 47 nM.

For `Cc1cc(Nc2nc(Nc3cc(C)c(C4CCN(C(=O)C5(N)CC5)CC4)cc3F)ncc2Cl)n[nH]1` [Compound 93, (1-aminocyclopropyl)(4-(4-(5-chloro-4-(5-methyl-1H-pyrazol-3-ylamino)pyrimidin-2-ylamino)-5-fluoro-2-methylphenyl)piperidin-1-yl)methanone], the IC50 was 33 nM.

The molecule `COc1cc(Nc2ncc(Cl)c(Nc3cc(C)[nH]n3)n2)c(C)cc1C1CCN(C[C@H](O)C(F)(F)F)CC1` [Compound 213, (S)-3-(4-(4-(5-chloro-4-(5-methyl-1H-pyrazol-3-ylamino)pyrimidin-2-ylamino)-2-methoxy-5-methylphenyl)piperidin-1-yl)-1,1,1-trifluoropropan-2-ol] showed an IC50 of 12 nM.

Molecule `Cc1cc(Nc2nc(Nc3cc(C)c(C4CCN(CCC(N)=O)CC4)cc3F)ncc2Cl)n[nH]1` [Compound 248, 3-(4-(4-(5-chloro-4-(5-methyl-1H-pyrazol-3-ylamino)pyrimidin-2-ylamino)-5-fluoro-2-methylphenyl)piperidin-1-yl)propanamide] yielded a 50% inhibitory concentration (IC50) of 140 nM.

Take `Cc1cc(Nc2nc(Nc3cc(C)c(C4CCN(Cc5nc(C(C)C)no5)CC4)cc3F)ncc2Cl)n[nH]1` [Compound 259, 5-Chloro-N^2-(2-fluoro-4-(1-((3-isopropyl-1,2,4-oxadiazol-5-yl)methyl)piperidin-4-yl)-5-methylphenyl)-N-(5-methyl-1H-pyrazol-3-yl)pyrimidine-2,4-diamine]: the IC50 was 64 nM.

`Cc1cc(Nc2nc(Nc3cc(C)c(C4CCN(C5COC5)CC4)cc3F)ncc2Cl)n[nH]1` [Compound 306, 5-chloro-N2-(2-fluoro-5-methyl-4-(1-(oxetan-3-yl)piperidin-4-yl)phenyl)-N4-(5-methyl-1H-pyrazol-3-yl)pyrimidine-2,4-diamine] came in with an IC50 of 15 nM.

Regarding `CCOC(=O)N1CCC(c2cc(F)c(Nc3ncc(Cl)c(Nc4cc(C)[nH]n4)n3)cc2C)CC1` [Compound 66, Ethyl 4-(4-(5-chloro-4-(5-methyl-1H-pyrazol-3-ylamino)pyrimidin-2-ylamino)-5-fluoro-2-methylphenyl)piperidine-1-carboxylate], the IC50 came to 64 nM.

Molecule `Cc1cc(Nc2nc(Nc3cc(C)c(C4CCN(C(=O)CCN(C)C)CC4)cc3C)ncc2Cl)n[nH]1` [Compound 239, 1-(4-(4-(5-chloro-4-(5-methyl-1H-pyrazol-3-ylamino)pyrimidin-2-ylamino)-2,5-dimethylphenyl)piperidin-1-yl)-3-(dimethylamino)propan-1-one] registered an IC50 of 73 nM.

On to `Cc1cc(Nc2nc(Nc3cc(C)c(C4CCN(Cc5ccccn5)CC4)cc3C)ncc2Cl)n[nH]1` [Compound 307, 5-chloro-N2-(2,5-dimethyl-4-(1-(pyridin-2-ylmethyl)piperidin-4-yl)phenyl)-N4-(5-methyl-1H-pyrazol-3-yl)pyrimidine-2,4-diamine], for which half-maximal inhibition (IC50) required 7 nM.

Molecule `Cc1cc(Nc2nc(Nc3cc(C)c(C4CCN([C@@H]5CCN(S(C)(=O)=O)C5)CC4)cc3F)ncc2Cl)n[nH]1` [Compound 312, (R)-5-chloro-N2-(2-fluoro-5-methyl-4-(1-(1-(methylsulfonyl)pyrrolidin-3-yl)piperidin-4-yl)phenyl)-N4-(5-methyl-1H-pyrazol-3-yl)pyrimidine-2,4-diamine] gave an IC50 of 25 nM.

Molecule `Cc1cc(Nc2nc(Nc3cc(C)c(C4CCN(C(=O)CN5CCCCC5)CC4)cc3C)ncc2Cl)n[nH]1` [Compound 101, 1-(4-(4-(5-chloro-4-(5-methyl-1H-pyrazol-3-ylamino)pyrimidin-2-ylamino)-2,5-dimethylphenyl)piperidin-1-yl)-2-(piperidin-1-yl)ethanone] showed a half-inhibitory concentration (IC50) of 7 nM.

`Cc1cc(C2CCNCC2)c(C)cc1Nc1ncc(Cl)c(Nc2ccc[nH]c2=O)n1` [Compound 158, 3-(5-chloro-2-(2,5-dimethyl-4-(piperidin-4-yl)phenylamino)pyrimidin-4-ylamino)pyridin-2(1H)-one]: the IC50 worked out at 62 nM.

Turning to `Cc1cc(Nc2nc(Nc3cc(C)c(C4CCN(Cc5ccncc5)CC4)cc3C)ncc2Cl)n[nH]1` [Compound 309, 5-chloro-N2-(2,5-dimethyl-4-(1-(pyridin-4-ylmethyl)piperidin-4-yl)phenyl)-N4-(5-methyl-1H-pyrazol-3-yl)pyrimidine-2,4-diamine], the half-maximal inhibitory concentration (IC50) worked out at 8 nM.

For `CCN1CCC(c2cc(C)c(Nc3ncc(C(F)(F)F)c(Nc4cc(C)[nH]n4)n3)cc2C)CC1` [Compound 221, N2-(4-(1-ethylpiperidin-4-yl)-2,5-dimethylphenyl)-N4-(5-methyl-1H-pyrazol-3-yl)-5-(trifluoromethyl)pyrimidine-2,4-diamine], the IC50 was found to be 34 nM.

In turn, `Cc1cc(Nc2nc(Nc3cc(C)c(C4CCN(C(=O)CN)CC4)cc3F)ncc2Cl)n[nH]1` [Compound 79, 2-amino-1-(4-(4-(5-chloro-4-(5-methyl-1H-pyrazol-3-ylamino)pyrimidin-2-ylamino)-5-fluoro-2-methylphenyl)piperidin-1-yl)ethanone] returned an IC50 of 75 nM.

As to `Cc1cc(Nc2nc(Nc3cc(C)c(C4CCN([C@H]5CC[C@H](O)CC5)CC4)cc3F)ncc2Cl)n[nH]1` [Compound 310, Trans-4-(4-(4-(5-chloro-4-(5-methyl-1H-pyrazol-3-ylamino)pyrimidin-2-ylamino)-5-fluoro-2-methylphenyl)piperidin-1-yl)cyclohexanol], the IC50 came to 27 nM.

With `Cc1cc(Nc2nc(Nc3cc(C)c(C4CCN(C(=O)CN5CCOCC5)CC4)cc3C)ncc2Cl)n[nH]1` [Compound 102, 1-(4-(4-(5-chloro-4-(5-methyl-1H-pyrazol-3-ylamino)pyrimidin-2-ylamino)-2,5-dimethylphenyl)piperidin-1-yl)-2-morpholinoethanone], the IC50 was 9 nM.

`Cc1cc(Nc2nc(Nc3cc(C)c(C4CCN(Cc5cccnc5)CC4)cc3F)ncc2Cl)n[nH]1` [Compound 297, 5-chloro-N2-(2-fluoro-5-methyl-4-(1-(pyridin-3-ylmethyl)piperidin-4-yl)phenyl)-N4-(5-methyl-1H-pyrazol-3-yl)pyrimidine-2,4-diamine] returned an IC50 of 79 nM.
